# Data: patent US12336981B2, “Compounds and compositions for the inhibition of NAMPT” (Valo Health, Inc., priority 2010, dated 2025)
# How the values were obtained:
# NAMPT = target: T1, NAMPT (Homo sapiens, UniProt P43490); test: Biochemical inhibition assay: NAMPT enzymatic reaction, NMN quantified by mass spectrometry; conditions: NAMPT enzymatic assay; read-out: Biochem IC50
# T1 construct: His tag; host or cells: E. coli
# Procedure: Biochemical Inhibition Assay
# NAMPT Protein Purification
# Recombinant His-tagged NAMPT was produced in E. coli cells, purified over a Ni column, and further purified over a size-exclusion column by XTAL Biostructures.
# The NAMPT Enzymatic Reaction
# The NAMPT enzymatic reactions were carried out in Buffer A (50 mM Hepes pH 7.5, 50 mM NaCl, 5 mM MgCl2, and 1 mM THP) in 96-well V-bottom plates. The compound titrations were performed in a separate dilution plate by serially diluting the compounds in DMSO to make a 100× stock. […] The compound and enzyme mix was incubated for 15 minutes at room temperature, then 10 μL of 10× substrate and co-factors in Buffer A were added to the test well to make a final concentration of 1 μM NAM, 100 μM 5-Phospho-D-ribose 1-diphosphate (PRPP), and 2.5 mM Adenosine 5′-triphosphate (ATP). The reaction was allowed to proceed for 30 minutes at room temperature, then was quenched with the addition of 11 μL of a solution of formic acid and L-Cystathionine to make a final concentration of 1% formic acid and 10 μM L-Cystathionine. Background and signal strength was determined by addition (or non-addition) of a serial dilution of NMN to a pre-quenched enzyme and cofactor mix.
# A mass spectrometry-based assay was used to measure the NAMPT reaction product (NMN) and the internal control (L-Cystathionine). NMN and L-Cystathionine were detected using the services of Biocius Lifesciences with the RapidFire system. In short, the NMN and L-Cystathionine are bound to a graphitic carbon cartridge in 0.1% formic acid, eluted in 30% acetonitrile buffer, and injected into a Sciex 4000 mass spectrometer. The components of the sample were ionized with electrospray ionization and the positive ions were detected. […] The fragments are quantified and the analyzed by the following method.
# First the NMN signal is normalized to the L-Cystathionine signal by dividing the NMN signal by the L-Cystathionine signal for each well. The signal from the background wells are averaged and subtracted from the test plates. […] IC50s are Determined Using Excel and this Formula.
# A2780 cells = test: In-vitro cell proliferation assay (SRB), A2780 cells; assay type: cell-based; conditions: Homo sapiens, A2780, 72 h, A2780 cells, 72 hours, SRB; read-out: A2780 IC50
# Procedure: In-Vitro Cell Proliferation Assay
# After overnight incubation at 37° C. and 5% CO2, the compound titrations were performed in a separate dilution plate by serially diluting the compounds in DMSO to make a 1000× stock. The compounds were then further diluted to 10× final concentration in culture media, whereupon 20 μL of each dilution was added to the plated cells with controls (e.g. DMSO and blank) to make a final volume of 200 μL. The final DMSO concentration in each well was 0.1%. The plates were then incubated for 72 hours at 37° C. in a 5% CO2 incubator. The number of viable cells was then assessed using sulforhodamine B (SRB) assay. Cells were fixed at 4° C. for 1 hour with the addition of 50 μL 30% trichloroacetic acid (TCA) to make a final concentration of 6% TCA. The plates were washed four times with H2O and allowed to dry for at least 1 hour, whereupon 100 μL of a 4% SRB in 1% acetic acid solution was added to each well and incubated at room temperature for at least 30 minutes. The plates were then washed three times with 1% acetic acid, dried, and treated with 100 μL of 10 mM Tris-Base solution. The plates were then read in a microplate reader at an absorbance of 570 nm. Background was generated on a separate plate with media only.
# Method for Determining % Inhibition
# First, the signals from the background plate are averaged, then the background was subtracted from the test plates.
# wherein X denotes the compound concentration 1, Y denotes the compound concentration 2, XX denotes the % inhibition at compound concentration 1 (X), and YY denotes the % inhibition at compound concentration 2 (Y).
# T1 sequence (P43490 whole entry): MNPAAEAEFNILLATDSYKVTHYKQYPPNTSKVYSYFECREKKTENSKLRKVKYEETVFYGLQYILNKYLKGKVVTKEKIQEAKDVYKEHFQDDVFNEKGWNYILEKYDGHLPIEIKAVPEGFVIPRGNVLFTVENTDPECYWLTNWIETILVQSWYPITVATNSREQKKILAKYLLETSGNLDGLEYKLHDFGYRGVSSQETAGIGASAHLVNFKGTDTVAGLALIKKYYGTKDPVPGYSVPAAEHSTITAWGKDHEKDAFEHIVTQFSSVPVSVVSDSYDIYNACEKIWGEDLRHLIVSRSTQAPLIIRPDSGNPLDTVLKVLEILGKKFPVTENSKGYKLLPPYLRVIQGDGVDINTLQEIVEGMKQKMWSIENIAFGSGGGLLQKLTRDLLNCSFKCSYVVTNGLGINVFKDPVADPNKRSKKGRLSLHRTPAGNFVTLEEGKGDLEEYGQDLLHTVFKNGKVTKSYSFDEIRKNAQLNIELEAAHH
Structure (SMILES),IC50 (NAMPT),IC50 (A2780 cells)
O=C(NCc1ccc(S(=O)(=O)c2ccc(C(F)(F)F)cc2C(F)(F)F)cc1)c1cnc2nccn2c1,18.8 nM,96.4 nM
O=C(NCc1ccc(S(=O)(=O)c2ccc(C(F)(F)F)cc2OCC(F)(F)F)cc1)c1cc2cnccc2[nH]1,9 nM,1 nM
O=C(NCc1ccc(S(=O)(=O)c2cc(C(F)(F)F)ccc2OCc2ccccc2)cc1)c1cnc2nccn2c1,33.2 nM,100 to 1000 nM
O=C(NCc1ccc(S(=O)(=O)c2cc(C(F)(F)F)ccc2OCc2ccccc2)cc1)c1cc2cnccc2[nH]1,130 nM,25.9 nM
CN(C)C(=O)c1ccccc1S(=O)(=O)c1ccc(CNC(=O)c2cc3ccncc3s2)cc1,100 to 1000 nM,100 to 1000 nM
CN(C)C(=O)c1ccccc1S(=O)(=O)c1ccc(CNC(=O)c2cc3ccncc3o2)cc1,100 to 1000 nM,1000 to 10000 nM
CCOCc1ccccc1S(=O)(=O)c1ccc(CNC(=O)c2cc3ccncc3o2)cc1,13.3 nM,26 nM
CCOCc1ccccc1S(=O)(=O)c1ccc(CNC(=O)c2cnc3nccn3c2)cc1,3.7 nM,39.6 nM
CCOCc1ccccc1S(=O)(=O)c1ccc(CNC(=O)c2cc3cnccc3[nH]2)cc1,18.5 nM,6.7 nM
CCOCc1ccccc1S(=O)(=O)c1ccc(CNC(=O)c2cnc3[nH]ncc3c2)cc1,52 nM,61.2 nM
CNS(=O)(=O)c1ccccc1S(=O)(=O)c1ccc(CNC(=O)c2cnc3nccn3c2)cc1,30.4 nM,1000 to 10000 nM
CNS(=O)(=O)c1ccccc1S(=O)(=O)c1ccc(CNC(=O)c2cc3ccncc3o2)cc1,51.3 nM,74 nM
O=C(NCc1ccc(S(=O)(=O)c2ccccc2CN2CCOCC2)cc1)c1cnc2[nH]ncc2c1,69.4 nM,46.5 nM
O=C(NCc1ccc(S(=O)(=O)c2ccccc2CN2CCOCC2)cc1)c1cnc2nccn2c1,14.5 nM,100 to 1000 nM
O=C(NCc1ccc(S(=O)(=O)c2ccccc2OC(F)(F)F)cc1)c1cc2ccncc2o1,8.6 nM,14.6 nM
O=C(NCc1ccc(S(=O)(=O)c2ccccc2C(F)(F)F)cc1)c1cnc2nccn2c1,10 nM,100 to 1000 nM
O=C(NCc1ccc(S(=O)(=O)c2ccccc2C(F)(F)F)cc1)c1cc2ccncc2o1,19.4 nM,59.3 nM
O=C(NCc1ccc(S(=O)(=O)c2cccc(C(F)(F)F)c2Cl)cc1)c1cc2ccncc2o1,18.4 nM,27.9 nM
O=C(NCc1ccc(S(=O)(=O)c2cccc(C(F)(F)F)c2Cl)cc1)c1cnc2nccn2c1,2.4 nM,24.6 nM
O=C(NCc1ccc(S(=O)(=O)c2cccc(C(F)(F)F)c2Cl)cc1)c1cc2cnccc2[nH]1,36.4 nM,8.8 nM
O=C(NCc1ccc(S(=O)(=O)c2ccc(C(F)(F)F)cc2Cl)cc1)c1cc2cnccc2[nH]1,127 nM,25.4 nM
O=C(NCc1ccc(S(=O)(=O)c2ccc(C(F)(F)F)cc2Cl)cc1)c1cnc2nccn2c1,18.4 nM,64.4 nM
O=C(NCc1ccc(S(=O)(=O)c2cc(CO)ccc2Cl)cc1)c1cc2cnccc2[nH]1,8.3 nM,26.2 nM
O=C(NCc1ccc(S(=O)(=O)c2cc(OC(F)(F)F)ccc2Cl)cc1)c1cnc2nccn2c1,8 nM,12.5 nM
O=C(NCc1ccc(S(=O)(=O)c2cc(C(F)(F)F)ccc2Cl)cc1)c1cnc2nccn2c1,7 nM,14.1 nM
O=C(NCc1ccc(S(=O)(=O)c2cc(C(F)(F)F)ccc2Cl)cc1)c1cc2ccncc2o1,13.9 nM,14.1 nM
CC(C)Oc1cccc(S(=O)(=O)c2ccc(CNC(=O)c3cc4ccncc4s3)cc2)c1F,4.7 nM,6.6 nM
CC(C)Oc1cccc(S(=O)(=O)c2ccc(CNC(=O)c3ccc4nccn4c3)cc2)c1F,7.8 nM,4 nM

Structure (SMILES),IC50 (NAMPT),IC50 (A2780 cells)
O=C(NCc1ccc(S(=O)(=O)c2cccc(OC(F)(F)F)c2F)cc1)c1cc2ccncc2s1,9.8 nM,13.3 nM
O=C(NCc1ccc(S(=O)(=O)c2ccc(-n3cccn3)cc2F)cc1)c1cnc2[nH]ncc2c1,38.9 nM,34.4 nM
O=C(NCc1ccc(S(=O)(=O)c2ccc(-n3cccn3)cc2F)cc1)c1cc2ccncc2o1,18.4 nM,8 nM
O=C(NCc1ccc(S(=O)(=O)c2ccc(-n3cccn3)cc2F)cc1)c1cnc2nccn2c1,2.2 nM,19 nM
O=C(NCc1ccc(S(=O)(=O)c2ccc(C(F)(F)F)cc2F)cc1)c1cc2ccncc2s1,20.2 nM,42.3 nM
O=C(NCc1ccc(S(=O)(=O)c2ccc(C(F)(F)F)cc2F)cc1)c1ccc2nccn2c1,15.6 nM,15.7 nM
COc1c(C(F)(F)F)cccc1S(=O)(=O)c1ccc(CNC(=O)c2ccc3nccn3c2)cc1,21.9 nM,14.8 nM
COc1c(C(F)(F)F)cccc1S(=O)(=O)c1ccc(CNC(=O)c2cc3ccncc3s2)cc1,9.4 nM,12.8 nM
COc1cc(-n2cccn2)ccc1S(=O)(=O)c1ccc(CNC(=O)c2cnc3[nH]ncc3c2)cc1,24.2 nM,9.4 nM
COc1cc(-n2cccn2)ccc1S(=O)(=O)c1ccc(CNC(=O)c2cc3ccncc3o2)cc1,6.5 nM,6 nM
COc1cc(C(F)(F)F)ccc1S(=O)(=O)c1ccc(CNC(=O)c2cnc3[nH]ncc3c2)cc1,120 nM,28.1 nM
COc1cc(C(F)(F)F)ccc1S(=O)(=O)c1ccc(CNC(=O)c2cnc3nccn3c2)cc1,4.4 nM,22.4 nM
COc1ccc(C(C)C)cc1S(=O)(=O)c1ccc(CNC(=O)c2cc3ccncc3o2)cc1,15.4 nM,12.4 nM
COc1ccc(C(C)C)cc1S(=O)(=O)c1ccc(CNC(=O)c2ccc3nccn3c2)cc1,35.2 nM,6.4 nM
COc1ccc(OC(F)(F)F)cc1S(=O)(=O)c1ccc(CNC(=O)c2cnc3[nH]ncc3c2)cc1,92.6 nM,24.6 nM
COc1ccc(OC(F)(F)F)cc1S(=O)(=O)c1ccc(CNC(=O)c2ccc3nccn3c2)cc1,67.7 nM,14.4 nM
COc1ccc(OC(F)(F)F)cc1S(=O)(=O)c1ccc(CNC(=O)c2cc3cnccc3[nH]2)cc1,48.1 nM,6.6 nM
COc1ccc(OC(F)(F)F)cc1S(=O)(=O)c1ccc(CNC(=O)c2cnc3nccn3c2)cc1,< 0.65 nM,5.8 nM
COc1ccc(C(F)(F)F)cc1S(=O)(=O)c1ccc(CNC(=O)c2cnc3nccn3c2)cc1,6.8 nM,3.6 nM
O=C(NCc1ccc(S(=O)(=O)c2ccc(C(F)(F)F)cc2C(F)(F)F)cc1)c1cc2ccncc2o1,53 nM,63.7 nM
O=C(NCc1ccc(S(=O)(=O)c2ccc(C(F)(F)F)cc2C(F)(F)F)cc1)c1cc2cnccc2[nH]1,40.1 nM,14 nM
O=C(NCc1ccc(S(=O)(=O)c2ccc(C(F)(F)F)cc2C(F)(F)F)cc1)c1ccc2nccn2c1,220 nM,53.2 nM
COc1ccc(C(C)(C)C)cc1S(=O)(=O)c1ccc(CNC(=O)c2cnc3[nH]ncc3c2)cc1,45.6 nM,21.6 nM
COc1ccc(C(C)(C)C)cc1S(=O)(=O)c1ccc(CNC(=O)c2cnc3nccn3c2)cc1,9.8 nM,7.7 nM
COc1ccc(C(C)(C)C)cc1S(=O)(=O)c1ccc(CNC(=O)c2cc3ccncc3o2)cc1,21.8 nM,10.1 nM
Cc1ccc(Cl)c(S(=O)(=O)c2ccc(CNC(=O)c3cc4cnccc4[nH]3)cc2)c1F,6.5 nM,7.1 nM
Cc1ccc(Cl)c(S(=O)(=O)c2ccc(CNC(=O)c3cc4ccncc4s3)cc2)c1F,7.7 nM,6.8 nM
